Reference: patent US12630600B2 (MEDIMMUNE LIMITED, priority 2022, dated 2026)
Where two headings read alike, the source gives them in different places. Values belong to the molecule of their own block, whether it stands above or below them. Starred links: 1 amine or outer side, 2 acyl side, 3 side chain; linkers in the order of their positions; H or OH if unused. Non-standard residues stand in square brackets, D forms with d. Residues, ends and D or L forms follow the SMILES beside them. Groups on a side chain read outwards from the residue. *: point of attachment. C18 diacid = O=C(O)CCCCCCCCCCCCCCCCC(=O)*; Dip = N[C@H](C(=O)O)C(c1ccccc1)c1ccccc1; γGlu = O=C(O)[C@H](CCC(=O)[*:2])N[*:1]; αMeF = C[C@](N)(Cc1ccccc1)C(=O)O; PEG2 = NCCOCCOCCC(=O)O; AEEA = NCCOCCOCC(=O)O; Aib = CC(C)(N)C(=O)O

Experiments:
[1] = target: T1, human GLP-1 receptor (hGLP-1R) (Homo sapiens, UniProt P43220); test: cAMP production (HTRF) in CHO cells expressing human GLP-1 receptor; format: cell-based; conditions: for EC50: geometric mean, cAMP; for % Relative Potency Ratio: % GLP-1R activity relative to GLP-1 / % GlucR activity relative to glucagon
T1 construct: expressed in transfected cells; host or cells: CHO

[2] = target: T2, human glucagon receptor (hGCGR) (Homo sapiens, UniProt P47871); test: cAMP production (HTRF) in CHO cells expressing human glucagon receptor; format: cell-based
T2 construct: expressed in transfected cells; host or cells: CHO
Method: Cells were re-suspended in assay buffer at a batch-dependent optimized concentration (typically hGLP-1R cells at 1×10^5 cells/mL, hGCGR cells at 2×10^5 cells/mL).
Cells were added to the assay plate using a multidrop dispenser and incubated at room temperature for 30 minutes before measuring the cAMP level using a cAMP dynamic 2 homogeneous time resolved Fluorescence (HTRF) kit (Cisbio Bioassays #62AM4PEJ) following the two-step protocol as per manufacturer's recommendations. In brief, anti-cAMP cryptate (donor fluorophore) and cAMP-d2 (acceptor fluorophore) were made up separately by diluting each 1 in 20 in conjugate and lysis buffer provided in the kit. Anti-cAMP cryptate was added to all wells of the assay plate, followed by cAMP-d2 added to all wells except non-specific binding (NSB) wells (to which conjugate and lysis buffer was added).
Data was transformed to % Delta F as described in the manufacturer's guidelines and analyzed by 4-parameter logistic fit to determine EC50 values.

[3] = Table 7, modification at position 20, CHO cells expressing hGLP-1R, read-out: hGLP-1R EC50
[4] = Table 7, modification at position 20, CHO cells expressing hGCGR, geometric mean, read-out: hGluc-R EC50

T1 sequence (P43220 24-463): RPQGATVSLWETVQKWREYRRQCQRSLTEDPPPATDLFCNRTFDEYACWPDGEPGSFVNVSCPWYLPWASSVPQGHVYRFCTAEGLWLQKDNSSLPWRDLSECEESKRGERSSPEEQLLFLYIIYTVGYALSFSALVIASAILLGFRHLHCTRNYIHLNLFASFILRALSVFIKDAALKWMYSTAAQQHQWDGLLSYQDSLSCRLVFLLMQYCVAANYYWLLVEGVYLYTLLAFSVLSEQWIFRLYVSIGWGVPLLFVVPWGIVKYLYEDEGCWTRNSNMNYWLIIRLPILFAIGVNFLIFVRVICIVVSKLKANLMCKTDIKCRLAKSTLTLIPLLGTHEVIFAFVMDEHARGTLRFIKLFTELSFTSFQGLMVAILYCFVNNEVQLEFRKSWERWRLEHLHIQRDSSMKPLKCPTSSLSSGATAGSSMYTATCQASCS
T2 sequence (P47871 26-477): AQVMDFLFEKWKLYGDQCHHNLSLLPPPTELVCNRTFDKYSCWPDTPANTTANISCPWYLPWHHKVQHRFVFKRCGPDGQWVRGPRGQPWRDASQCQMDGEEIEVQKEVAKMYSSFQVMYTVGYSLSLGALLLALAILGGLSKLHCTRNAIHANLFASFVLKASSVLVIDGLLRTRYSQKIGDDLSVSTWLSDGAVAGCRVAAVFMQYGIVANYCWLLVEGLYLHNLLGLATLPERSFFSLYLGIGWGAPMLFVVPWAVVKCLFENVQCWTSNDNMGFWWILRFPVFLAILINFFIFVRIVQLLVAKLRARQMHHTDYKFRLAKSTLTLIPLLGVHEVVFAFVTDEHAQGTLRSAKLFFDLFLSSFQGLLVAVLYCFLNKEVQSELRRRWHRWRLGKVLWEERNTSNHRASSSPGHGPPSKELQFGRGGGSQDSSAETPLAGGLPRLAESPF

EC50 ([1]; Table 10, peptides modified at position 13, CHO cells, read-out: hGLP-1R EC50): 5.65 pM | % Relative Potency Ratio ([1]; Table 10): 7.6 | EC50 ([2]; Table 10, peptides modified at position 13, geometric mean, CHO cells, read-out: hGluc-R EC50): 21.8 pM
Compound: CCCCCCCCCCCCCCCCCC(=O)N[C@@H](CCC(=O)N[C@@H](CCC(=O)NCCOCCOCCC(=O)NCCOCCOCCC(=O)NCCCC[C@H](NC(=O)[C@H](CCCCN)NC(=O)[C@H](CO)NC(=O)[C@@H](NC(=O)[C@H](CC(=O)O)NC(=O)[C@H](CO)NC(=O)[C@@H](NC(=O)[C@](C)(Cc1ccccc1)NC(=O)[C@H](CO)NC(=O)CNC(=O)[C@H](CCC(N)=O)NC(=O)[C@H](CO)NC(=O)[C@@H](N)Cc1c[nH]cn1)[C@@H](C)O)C(C)C)C(=O)N[C@@H](CC(C)C)C(=O)N[C@@H](CC(=O)O)C(=O)N[C@@H](CO)C(=O)N[C@H](C(=O)N[C@@H](C)C(=O)N[C@@H](C)C(=O)N[C@@H](CCC(N)=O)C(=O)N[C@@H](CC(=O)O)C(=O)N[C@@](C)(Cc1ccccc1)C(=O)N[C@H](C(=O)N[C@@H](CCC(=O)O)C(=O)N[C@@H](Cc1c[nH]cn1)C(=O)N[C@@H](CC(C)C)C(=O)N[C@@H](C)C(=O)N[C@@H](CC(N)=O)C(=O)N[C@H](C(N)=O)[C@@H](C)O)C(C)C)C(C)(C)CCNC(=N)N)C(=O)O)C(=O)O [Peptide 404, HSQGS(αMePhe)TSDVSKK((PEG)2-(PEG)2-γE-γE-Stearoyl)13LDS(ß-dimethylArg)AAQD(αMePhe)VEHLANT-amide]

EC50 [1, 3]: 198 pM | % Relative Potency Ratio ([1]; Table 7): 196.1 | % Relative Potency Ratio ([1]; Table 8): 4.2 | EC50 [2, 4]: 19600 pM
Compound: CC[C@H](C)[C@H](NC(=O)[C@H](Cc1c[nH]c2ccccc12)NC(=O)[C@H](CCCCNC(=O)CC[C@H](NC(=O)CCCCCCCCCCCCCCCCC(=O)O)C(=O)O)NC(=O)[C@@H](NC(=O)[C@H](Cc1ccccc1)NC(=O)[C@H](CC(=O)O)NC(=O)[C@H](CCC(N)=O)NC(=O)[C@H](C)NC(=O)[C@H](C)NC(=O)[C@H](CCCNC(=N)N)NC(=O)[C@H](CO)NC(=O)[C@H](CC(=O)O)NC(=O)[C@H](CC(C)C)NC(=O)[C@@H](NC(=O)[C@H](CCCCN)NC(=O)[C@H](CO)NC(=O)[C@@H](NC(=O)[C@H](CC(=O)O)NC(=O)[C@H](CO)NC(=O)[C@@H](NC(=O)[C@H](Cc1ccccc1)NC(=O)[C@H](CO)NC(=O)CNC(=O)[C@H](CCC(N)=O)NC(=O)C(C)(C)NC(=O)[C@@H](N)Cc1c[nH]cn1)[C@@H](C)O)C(C)C)C(c1ccccc1)c1ccccc1)C(C)C)C(=O)N[C@@H](C)C(=O)N[C@@H](CC(N)=O)C(=O)N[C@H](C(N)=O)[C@@H](C)O [Peptide 343] (H-H[Aib]QGSFTSDVSK[Dip]LDSRAAQDFVK([γGlu-C18 diacid])WIANT-NH2)

EC50 ([1]; Table 9, peptides modified at position 10, CHO cells, read-out: hGLP-1R EC50): 312 pM | % Relative Potency Ratio ([1]; Table 9): 43.8 | EC50 ([2]; Table 9, peptides modified at position 10, geometric mean, CHO cells, read-out: hGluc-R EC50): 6920 pM
Compound: CC[C@H](C)[C@H](NC(=O)C(C)(C)NC(=O)[C@H](CCC(N)=O)NC(=O)[C@@H](NC(=O)[C@](C)(Cc1ccccc1)NC(=O)[C@H](CC(=O)O)NC(=O)[C@H](CCC(N)=O)NC(=O)[C@H](C)NC(=O)[C@H](C)NC(=O)[C@H](CCCNC(=N)N)NC(=O)[C@H](CO)NC(=O)[C@H](CC(=O)O)NC(=O)[C@H](CC(C)C)NC(=O)[C@](C)(Cc1ccccc1)NC(=O)[C@H](CCCCN)NC(=O)[C@H](CO)NC(=O)[C@H](CCCCNC(=O)COCCOCCNC(=O)COCCOCCNC(=O)CC[C@H](NC(=O)CCCCCCCCCCCCCCCCC(=O)O)C(=O)O)NC(=O)[C@H](CC(=O)O)NC(=O)[C@H](CO)NC(=O)[C@@H](NC(=O)[C@](C)(Cc1ccccc1)NC(=O)[C@H](CO)NC(=O)CNC(=O)[C@H](Cc1c[nH]cn1)NC(=O)C(C)(C)NC(=O)[C@@H](N)Cc1c[nH]cn1)[C@@H](C)O)C(C)C)C(=O)N[C@@H](C)C(=O)N[C@@H](CC(N)=O)C(=O)N[C@H](C(N)=O)[C@@H](C)O [Peptide 392] (H-H[Aib]HGS[αMeF]TSDK([AEEA-AEEA-γGlu-C18 diacid])SK[αMeF]LDSRAAQD[αMeF]VQ[Aib]IANT-NH2)

EC50 [1, 3]: 43.3 pM | % Relative Potency Ratio ([1]; Table 7): 27.2 | EC50 [2, 4]: 595 pM
Compound: CC[C@H](C)[C@H](NC(=O)[C@H](Cc1c[nH]c2ccccc12)NC(=O)[C@H](CCC(N)=O)NC(=O)[C@@H](NC(=O)[C@H](Cc1ccccc1)NC(=O)[C@H](CC(=O)O)NC(=O)[C@H](CCCCNC(=O)COCCOCCNC(=O)COCCOCCNC(=O)CC[C@H](NC(=O)CCCCCCCCCCCCCCCCC(=O)O)C(=O)O)NC(=O)[C@H](C)NC(=O)[C@H](C)NC(=O)[C@H](CCCNC(=N)N)NC(=O)[C@H](CO)NC(=O)[C@H](CC(=O)O)NC(=O)[C@H](CC(C)C)NC(=O)[C@](C)(Cc1ccccc1)NC(=O)[C@H](CCCCN)NC(=O)[C@H](CO)NC(=O)[C@@H](NC(=O)[C@H](CC(=O)O)NC(=O)[C@H](CO)NC(=O)[C@@H](NC(=O)[C@](C)(Cc1ccccc1)NC(=O)[C@@H](NC(=O)CNC(=O)[C@H](CCC(N)=O)NC(=O)C(C)(C)NC(=O)[C@@H](N)Cc1c[nH]cn1)[C@@H](C)O)[C@@H](C)O)C(C)C)C(C)C)C(=O)N[C@@H](C)C(=O)N[C@@H](CC(N)=O)C(=O)N[C@H](C(N)=O)[C@@H](C)O [Peptide 204] (H-H[Aib]QGT[αMeF]TSDVSK[αMeF]LDSRAAK([AEEA-AEEA-γGlu-C18 diacid])DFVQWIANT-NH2; N-terminus assumed)

Compound: CC[C@H](C)[C@H](NC(=O)[C@H](Cc1c[nH]c2ccccc12)NC(=O)[C@H](CCCCNC(=O)CC[C@H](NC(=O)CCCCCCCCCCCCCCCCC(=O)O)C(=O)O)NC(=O)[C@@H](NC(=O)[C@H](Cc1ccccc1)NC(=O)[C@H](CC(=O)O)NC(=O)[C@H](CCC(N)=O)NC(=O)[C@H](C)NC(=O)[C@H](C)NC(=O)[C@H](CCC(N)=O)NC(=O)[C@H](CO)NC(=O)[C@H](CC(=O)O)NC(=O)[C@H](CC(C)C)NC(=O)[C@](C)(Cc1ccccc1)NC(=O)[C@H](CCCCN)NC(=O)[C@H](CO)NC(=O)[C@@H](NC(=O)[C@H](CC(=O)O)NC(=O)[C@H](CO)NC(=O)[C@@H](NC(=O)[C@H](Cc1ccccc1)NC(=O)[C@@H](NC(=O)CNC(=O)[C@H](Cc1c[nH]cn1)NC(=O)C(C)(C)NC(=O)[C@@H](N)Cc1c[nH]cn1)[C@@H](C)O)[C@@H](C)O)C(C)C)C(C)C)C(=O)N[C@@H](C)C(=O)N[C@@H](CC(N)=O)C(=O)N[C@H](C(N)=O)[C@@H](C)O [Peptide 346]
% Relative Potency Ratio ([1]; Table 8): 0.1 | EC50 ([1]; hGLP-1R EC50 (pM), Table 8, peptides modified at position 24, CHO cells): 7320 pM | EC50 ([2]; hGluc-R EC50 (pM), Table 8, peptides modified at position 24, geometric mean, CHO cells): 203 pM

EC50 ([1]; Table 6, modification at position 17, CHO cells expressing hGLP-1R, read-out: hGLP-1R EC50): 1230 pM | % Relative Potency Ratio ([1]; Table 6): 3.3 | EC50 ([2]; Table 6, modification at position 17, CHO cells expressing hGCGR, geometric mean, read-out: hGluc-R EC50): 2060 pM
Compound: CC[C@H](C)[C@H](NC(=O)[C@@H](NC(=O)C(C)(C)NC(=O)[C@H](CCC(=O)O)NC(=O)[C@@H](NC(=O)[C@](C)(Cc1ccccc1)NC(=O)[C@H](CC(=O)O)NC(=O)[C@H](CCC(N)=O)NC(=O)[C@H](C)NC(=O)[C@H](C)NC(=O)[C@H](CCCCNC(=O)CCOCCOCCNC(=O)CCOCCOCCNC(=O)CC[C@H](NC(=O)CC[C@H](NC(=O)CCCCCCCCCCCCCCCCC(=O)O)C(=O)O)C(=O)O)NC(=O)[C@H](CO)NC(=O)[C@H](CC(=O)O)NC(=O)[C@H](CC(C)C)NC(=O)[C@@H](NC(=O)[C@H](CCCCN)NC(=O)[C@H](CO)NC(=O)[C@@H](NC(=O)[C@H](CC(=O)O)NC(=O)[C@H](CO)NC(=O)[C@@H](NC(=O)[C@](C)(Cc1ccccc1)NC(=O)[C@H](CO)NC(=O)CNC(=O)[C@H](CCC(N)=O)NC(=O)[C@H](CO)NC(=O)[C@@H](N)Cc1c[nH]cn1)[C@@H](C)O)C(C)C)C(c1ccccc1)c1ccccc1)C(C)C)[C@@H](C)CC)C(=O)N[C@@H](CC(N)=O)C(=O)N[C@H](C(N)=O)[C@@H](C)O [Peptide 65] (H-HSQGS[αMeF]TSDVSK[Dip]LDSK([PEG2-PEG2-γGlu-γGlu-C18 diacid])AAQD[αMeF]VE[Aib]IINT-NH2)
